# Measurements: patent US8383626B2, “Nitric oxide donors for inducing neurogenesis” (Henry Ford Health System, priority 1999, dated 2013)
# Where “and” joins values, the source holds several entries; their conditions need not be identical. Identical values can stand only once.
# Tests used:
# Type in all cases: in vivo, rat
# [1] = tested on: focal embolic cerebral ischemic brain; assay: Ischemic lesion volume after embolic MCA occlusion; details: ischemic rats
# Description: (§1) Male Wistar rats (n=30) weighing 300-350 g were subjected to middle cerebral artery (MCA) occlusion. The MCA was occluded by placement of an embolus at the origin of the MCA. Briefly, a single intact fibrin rich 24 hour old homologous clot (about 1 μl) was placed at the origin of the MCA via a fifteen mm length of modified PE-50 catheter. The experimental protocol consisted of four groups. In Group I (control group), rats were subjected to MCA occlusion and received four consecutive intravenous bolus doses of saline (0.52 ml each, every fifteen minutes) at 24 hours after ischemia. Group II (DETNO/NO precondition) rats received four consecutive intravenous bolus doses of DETANONO (0.1 mg/kg each, every fifteen minutes, and total dose 0.4 mg/kg) at 24 hours before embolization. Group III (DETANONO two set group), animals received consecutive intravenous bolus doses of DETANONO (0.1 mg/kg each, every fifteen minutes and total dose 0.4 mg/kg) at 24 and 48 hours after occlusion. Group IV (DETANONO seven set group), animals received four consecutive intravenous bolus doses of DETANONO (0.1 mg/kg each, every fifteen minutes and total dose 0.4 mg/kg) at 24 hours after embolization. Subsequently, rats were intraperitoneally injected with DETA/NO at 0.4 mg/kg every day for six consecutive days.
# ischemic rats (stroke) = assay: Battery of neurological functional tests (NSS, Rotarod, footfault, adhesive removal, body weight) after stroke
# Description: Administration of nitric oxide donor compound (DETA/NO) to normal and ischemic rats promotes neurogenesis in non-ischemic and ischemic brains. Since then, additional experiments have been performed to test the hypothesis that neurogenesis induced by DETA/NO promotes functional improvement after stroke; the data is provided herewith. Animals were administered (iv/ip) DETA/NO at one day (Group 1) or seven days (Group 2) after induction of stroke and followed by daily injection (ip) of DETA/NO over a period of seven days. Another NO donor compound (SNAP) was administered (iv) to ischemic rats at one day and two days after stroke (Group 3). Young (3 month old) rats were used in Groups 1 and 2. Middle aged rats (10 to 12 months old) were used in Group 3. A battery of neurological functional tests were measured from two days to forty-two days after stroke. These tests included 1) Neurological severity score (NSS) which measures motor, sensory and reflex functions and is similar to the contralateral neglect testing described in humans. The higher the score, the more severe the injury; 2) Rotarod test measures fore and hindlimb motor coordination and balance. Data are presented as percentage of baseline values; 3) Footfault test measures fore and hindlimb motor coordination. The higher the number, the more severe the injury; 4) Adhesive removal test measures sensorimotor impairments. Data are presented as time (seconds). The longer the time period, the more severe the injury; 5) Animal body weight.
# [2] = tested on: newly formed cells (BrdU) in the subventricular zone and the dentate gyrus; assay: BrdU-positive newly formed cells in rats after embolic MCA occlusion treated with DETANONO
# Description: A pharmacological method to promote neurogenesis in brain was developed. Male Wistar rats were subjected to middle cerebral artery (MCA) occlusion by means of intraarterial placement of a clot at the origin of the right MCA. Animals were administered (iv/ip) nitric oxide donor compounds (DETANONO) after induction of stroke, at 24 and 48 hours (Group 1), or at 24 hours followed by daily injection (ip) of NO donor compound (Group 2). BrdU, a thymidine analog which identifies the formation of new cells, was injected (ip) daily over a period of 14 days from the onset of ischemia. Identification of cell type was determined by labeling immunoreactivity of specific cell proteins. Thus, neurons were identified by expression of NeuN, MAP2 and the astrocytes formed by GFAP. Measurements of neurogenesis were performed within specific regions of brain, the subventricular zone and the dentate gyrus.
# [3] = tested on: neuronal progenitor cells in the SVZ and in the dentate gyrus; assay: Proliferation of neuronal progenitor cells (BrdU immunoreactive cells) in ischemic adult rats (embolic MCA occlusion)
# Description: Two experiments were performed. In the first experiment, the effects of NO on the proliferation of neuronal progenitor cells in the SVZ and the dentate gyrus of non ischemic adult rats were examined. In the second experiment, the effects of NO on the proliferation of neuronal progenitor cells in the SVZ and in the dentate gyrus of ischemic adult rats were examined.
# Based on above data, a second experiment was performed to explore NO effects on focal embolic cerebral ischemic brain. All procedures were the same as in the first experiment except for the following procedures.
# as §1
# [4] = tested on: newly formed cells (BrdU) in the subventricular zone and the dentate gyrus; assay: BrdU-positive newly formed cells in non-ischemic rats after single dose of DETANONO
# Description: Treatment of non-ischemic brain with DETANONO: Rats not subjected to any surgical procedures were treated with DETANONO. The drug was administered as a single dose (iv 0.12 mg). BrdU was injected daily for 14 days after treatment. One population (Group 3) of rats was sacrificed on the last day of BrdU injection, Another population (Group 4) was sacrificed at four weeks after the last BrdU injection. Animals which were not administered DETA-NONO were given BrdU with the identical protocol as that for the DETA-NONO treated rats (Group 5).
smiles,measurement,setting,value
"NCCN(CCN)/[N+]([O-])=N/O [DETANONO, DETANONOate]",ischemic lesion volume,[1],did not exhibit a significant reduction
same,animal body weight,"ischemic rats (stroke); Group 1: from one day after stroke, daily ip over seven days, vs control",Significant improvements
same,"motor and sensorimotor functions (Rotarod, Adhesive Removal, NSS tests)","ischemic rats (stroke); Group 1: from one day after stroke, daily ip over seven days, young rats, vs control",Significant improvements
same,"neurological function, Rotarod test","ischemic rats (stroke); Group 2: from seven days after stroke, at 28 and 42 days after stroke, only this test",significant improvement
same,BrdU cells in the granule cell layer,"[2]; Group 1: treated at 24 and 48 hours after stroke, non-treated 37.3±3.6",89.5±12
same,"numbers of BrdU positive cells, subventricular zone","[2]; Group 2: 24 h after stroke then daily ip, BrdU daily 14 days, untreated 1653±91.4",2748±326
same,"numbers of BrdU positive cells, dentate gyrus granule cell layer","[2]; Group 2: 24 h after stroke then daily ip, untreated 37.3±3.6",135±18.9
same,"numbers of BrdU positive cells, dentate gyrus hilus","[2]; Group 2, untreated 10.1±2.4",43.8±10.2
same,"numbers of BrdU positive cells, dentate gyrus (second pair of values, area not named)","[2]; Group 2, untreated 34.9±2.8",53.7±6.3
same,newly formed cells within the dentate gyrus that were neurons,[2]; ischemic rats,> 90%
same,newly formed cells within the hippocampus of neuronal phenotype,"[2]; rats treated with DETANONO and subjected to strokes, estimated",more than 90%
same,BrdU immunoreactive cells in the OB,"[3]; ischemic rats, 14 days and 42 days after MCA occlusion",Significant increases
same,BrdU immunoreactive cells in dentate gyrus,"[3]; ischemic rats, 14 days and 42 days, vs MCA occlusion group",significant increases
same,numbers of BrdU immunoreactive cells in the SVZ,"[3]; preconditioned group (24 hours before embolization), contralateral SVZ at 14 days, both SVZs at 42 days, vs non-treated MCA occlusion",Significant (p<0.05) increases
same,BrdU immunoreactive cells in the SVZ,"[3]; seven sets, contralateral and ipsilateral SVZ at 14 days and 42 days after MCA occlusion",significant increases
same,numbers of BrdU immunoreactive cells in the SVZ,"[3]; two dosage group (24 and 48 hours after occlusion), ipsilateral SVZ at 14 days, both SVZ at 42 days",significant increase
same,"BrdU cells, subventricular zones (two values, sides not given)","[4]; Group 3: single dose iv 0.12 mg, sacrificed on last day of BrdU injection, Group 5 controls 1432.6±104.6, 1655.2±102.9, in cells/mm2",2952±102.6 and 2725.3±115.5
same,"BrdU cells, dentate gyrus (granule cell layer)","[4]; Group 3, Group 5 control 39.9±7.26",73.7±8.11
same,"BrdU cells, subventricular zone (two values, sides not given)","[4]; Group 4: single dose iv 0.12 mg, sacrificed four weeks after last BrdU injection, controls 214.6±67.9, 233.1±49.2, in cells/mm2",456.5±42.3 and 518.4±67.2
